Measurements as given in US20250059174A1, “Pharmaceutical Compounds and Compositions as C-Kit Kinase Inhibitors” (Enanta Pharmaceuticals, Inc., priority 2023, published 2025).

Tests used:
M-07e cells = test: M-07e cellular assay (SCF-mediated cell proliferation); assay type: cell-based; conditions: Homo sapiens, 72 hours, CellTiter Glo
Outline: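 EC50 values reflect inhibition of SCF-driven proliferation, with SCF at EC90 and a 72 h compound exposure, measured as CellTiter Glo luminescence. Growth is scaled between no-SCF (0%) and untreated (100%) wells.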

[1] = target: Recombinant human c-KIT kinase (Homo sapiens (Human), UniProt P10721); test: c-KIT kinase chemiluminescence assay (ADP-Glo); assay type: biochemical; conditions: ATP 50 μM
Outline: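 ADP formed by c-KIT on polyEY over 2 h at RT (after 30 min enzyme preincubation; Tris pH 7.5, MgCl2, BSA, DTT buffer) was detected by ADP-Glo luminescence. IC50 and Hill slope were fitted to control-normalized activity across compound concentrations.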

Sequence of Recombinant human c-KIT kinase (P10721 26-976): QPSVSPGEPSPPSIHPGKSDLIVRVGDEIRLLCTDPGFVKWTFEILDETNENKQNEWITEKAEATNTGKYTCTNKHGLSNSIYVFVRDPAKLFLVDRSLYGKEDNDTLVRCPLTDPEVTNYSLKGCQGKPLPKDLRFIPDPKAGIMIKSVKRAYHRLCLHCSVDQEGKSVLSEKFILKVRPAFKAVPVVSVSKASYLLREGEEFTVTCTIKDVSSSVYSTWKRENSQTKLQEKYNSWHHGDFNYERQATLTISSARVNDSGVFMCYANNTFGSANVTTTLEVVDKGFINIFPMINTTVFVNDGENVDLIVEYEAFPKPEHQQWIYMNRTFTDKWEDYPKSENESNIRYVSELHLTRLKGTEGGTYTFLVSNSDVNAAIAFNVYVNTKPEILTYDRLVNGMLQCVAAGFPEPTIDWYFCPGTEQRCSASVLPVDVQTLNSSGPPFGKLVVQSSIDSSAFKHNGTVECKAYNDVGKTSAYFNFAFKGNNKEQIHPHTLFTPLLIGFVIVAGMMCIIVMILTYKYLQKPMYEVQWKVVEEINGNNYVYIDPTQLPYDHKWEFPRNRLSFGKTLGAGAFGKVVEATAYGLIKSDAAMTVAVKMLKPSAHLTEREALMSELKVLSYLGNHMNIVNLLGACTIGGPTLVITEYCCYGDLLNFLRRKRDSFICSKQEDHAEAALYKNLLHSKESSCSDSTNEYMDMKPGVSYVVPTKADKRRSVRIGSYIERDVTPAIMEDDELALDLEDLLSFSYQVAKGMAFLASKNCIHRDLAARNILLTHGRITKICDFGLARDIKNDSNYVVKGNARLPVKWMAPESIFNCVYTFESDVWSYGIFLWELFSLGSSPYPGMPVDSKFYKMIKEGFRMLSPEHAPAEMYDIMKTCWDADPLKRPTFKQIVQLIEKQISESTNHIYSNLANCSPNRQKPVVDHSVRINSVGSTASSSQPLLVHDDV

Row | SMILES | EC50 (M-07e cells) | IC50 [1]
1 | Cc1ccc(-c2nc3n(n2)CCN(C(=O)C2CC2)C3)cc1NC(=O)c1cnn2ccc(N3CC4(C3)CC(O)(C(F)F)C4)cc12 [Example 323] | > 1000 nM | 100 to 1000 nM
2 | COC(=O)N1CCn2nc(-c3ccc(C)c(NC(=O)c4cnn5ccc(N6CC7(C6)CC(O)(C(F)F)C7)cc45)c3)nc2C1 [Example 324] | 100 to 1000 nM | 100 to 1000 nM
3 | Cc1ncc(-c2ncc(C(C)C)cn2)cc1NC(=O)c1cnn2ccc(N3CC4(C3)CC(O)(C(F)F)C4)cc12 [Example 326] | < 100 nM | < 100 nM
4 | Cc1ncc(-c2ncc(C(F)F)cn2)cc1NC(=O)c1cnn2ccc(N3CC4(C3)CC(O)(C(F)F)C4)cc12 [Example 327] | 100 to 1000 nM | 100 to 1000 nM
5 | Cc1ncc(-c2ncc(C(F)(F)F)cn2)cc1NC(=O)c1cnn2ccc(N3CC4(C3)CC(O)(C(F)F)C4)cc12 [Example 328] | < 100 nM | 100 to 1000 nM
6 | Cc1ccc(-c2cnc(OC(F)F)nc2)cc1NC(=O)c1cnn2ccc(N3CC4(COC4)C3)cc12 [Example 329] | 100 to 1000 nM | < 100 nM
7 | Cc1ncc(-c2ccc(OC(F)F)nc2)cc1NC(=O)c1cnn2ccc(N3CC4(COC4)C3)cc12 [Example 330] | < 100 nM | 100 to 1000 nM
8 | Cc1ncc(-c2ccc(OC(F)F)cn2)cc1NC(=O)c1cnn2ccc(N3CC4(C3)CC(O)(C(F)F)C4)cc12 [Example 331] | < 100 nM | 100 to 1000 nM
9 | Cc1ncc(-c2ccc(OC(F)(F)F)cn2)cc1NC(=O)c1cnn2ccc(N3CC4(COC4)C3)cc12 [Example 332] | < 100 nM | 100 to 1000 nM
10 | Cc1ncc(-c2ccc(OC(F)(F)F)cn2)cc1NC(=O)c1cnn2ccc(N3CC4(C3)CC(O)(C(F)F)C4)cc12 [Example 333] | < 100 nM | < 100 nM
11 | Cc1ccc(-c2nccc(C3CC3)n2)cc1NC(=O)c1cnn2ccc(N3CC4(COC4)C3)cc12 [Example 334] | < 100 nM | 100 to 1000 nM
12 | Cc1ccc(-c2ncc(C3CC3)cn2)cc1NC(=O)c1cnn2ccc(N3CC4(COC4)C3)cc12 [Example 335] | < 100 nM | < 100 nM
13 | Cc1ccc(-c2ccc(C3CC3)cn2)cc1NC(=O)c1cnn2ccc(N3CC4(COC4)C3)cc12 [Example 336] | < 100 nM | < 100 nM
14 | Cc1ccc(-c2ncc(C(F)(F)F)cn2)cc1NC(=O)c1cnn2ccc(N3CC4(COC4)C3)cc12 [Example 337] | < 100 nM | 100 to 1000 nM
15 | Cc1ccc(-c2ncc(OC(F)F)cn2)cc1NC(=O)c1cnn2ccc(N3CC4(COC4)C3)cc12 [Example 338] | < 100 nM | 100 to 1000 nM
16 | Cc1ccc(-c2ncc(C3CC3)cn2)cc1NC(=O)c1cnn2ccc(N3CC4(C3)CC(O)(C(F)F)C4)cc12 [Example 339] | < 100 nM | < 100 nM
17 | Cc1ccc(-c2cnc(C3CC3)nc2)cc1NC(=O)c1cnn2ccc(N3CC4(COC4)C3)cc12 [Example 340] | < 100 nM | < 100 nM
18 | Cc1ccc(-c2cnc(C3CC3)cn2)cc1NC(=O)c1cnn2ccc(N3CC4(COC4)C3)cc12 [Example 341] | < 100 nM | < 100 nM
19 | Cc1ccc(-c2ccc(C3CC3)nc2)cc1NC(=O)c1cnn2ccc(N3CC4(COC4)C3)cc12 [Example 342] | < 100 nM | < 100 nM
20 | Cc1ccc(-c2ccc(C3CC3)nn2)cc1NC(=O)c1cnn2ccc(N3CC4(COC4)C3)cc12 [Example 343] | < 100 nM | < 100 nM
21 | Cc1ccc(-c2ncc(C(F)F)cn2)cc1NC(=O)c1cnn2ccc(N3CC4(COC4)C3)cc12 [Example 344] | < 100 nM | 100 to 1000 nM
22 | Cc1ccc(-c2ncc(C(C)C)cn2)cc1NC(=O)c1cnn2ccc(N3CC4(COC4)C3)cc12 [Example 345] | < 100 nM | < 100 nM
23 | Cc1sc(-c2ncc(C3CC3)cn2)cc1NC(=O)c1cnn2ccc(N3CC4(C3)CC(O)(C(F)F)C4)cc12 [Example 346] | < 100 nM | < 100 nM

Row | SMILES | EC50 (M-07e cells) | IC50 [1]
24 | Cc1sc(-c2nccc(C3CC3)n2)cc1NC(=O)c1cnn2ccc(N3CC4(C3)CC(O)(C(F)F)C4)cc12 [Example 347] | 100 to 1000 nM | 100 to 1000 nM
25 | Cc1ccc(-c2ncc(OC(F)(F)F)cn2)cc1NC(=O)c1cnn2ccc(N3CC4(COC4)C3)cc12 [Example 348] | < 100 nM | < 100 nM
26 | Cc1ccc(-c2ccc(C(C)C)cn2)cc1NC(=O)c1cnn2ccc(N3CC4(COC4)C3)cc12 [Example 349] | < 100 nM | < 100 nM
27 | O=C(Nc1cc(-c2ccc(C3CC3)cn2)ccc1Cl)c1cnn2ccc(N3CC4(COC4)C3)cc12 [Example 350] | > 1000 nM | > 1000 nM
28 | Cc1ccc(-c2ccc(C3CC3)cn2)cc1NC(=O)c1cnn2ccc(N3CC4(C3)CC(O)(C(F)F)C4)cc12 [Example 351] | < 100 nM | < 100 nM
29 | O=C(Nc1cc(-c2ccc(C3CC3)cn2)ccc1Cl)c1cnn2ccc(N3CC4(C3)CC(O)(C(F)F)C4)cc12 [Example 352] | > 1000 nM | > 1000 nM
30 | Cc1ccc(-c2cnc(C3CC3)nc2)cc1NC(=O)c1cnn2ccc(N3CC4(C3)CC(O)(C(F)F)C4)cc12 [Example 353] | < 100 nM | < 100 nM
31 | Cc1ccc(-c2cnc(N3CC(O)(C(F)(F)F)C3)nc2)cc1NC(=O)c1cnn2ccc(N3CC4(COC4)C3)cc12 [Example 354] | < 100 nM | < 100 nM
32 | Cc1sc(-c2cnc(C3CC3)nc2)cc1NC(=O)c1cnn2ccc(N3CC4(C3)CC(O)(C(F)F)C4)cc12 [Example 355] | < 100 nM | 100 to 1000 nM
33 | Cc1ncc(-c2ccc(C3CC3)cn2)cc1NC(=O)c1cnn2ccc(N3CC4(C3)CC(O)(C(F)F)C4)cc12 [Example 356] | < 100 nM | < 100 nM
34 | Cc1ncc(-c2ccc(C3CC3)cn2)cc1NC(=O)c1cnn2ccc(N3CC4(COC4)C3)cc12 [Example 357] | < 100 nM | 100 to 1000 nM
35 | Cc1ncc(-c2ncc(OC(F)(F)F)cn2)cc1NC(=O)c1cnc(-c2ccc3c(c2)CC(=O)N3)o1 [Example 358, N-(2-methyl-5-(5-(trifluoromethoxy)pyrimidin-2-yl)pyridin-3-yl)-2-(2-oxoindolin-5-yl)oxazole-5-carboxamide] | 100 to 1000 nM | > 1000 nM
36 | Cc1ccc(-c2ncc(OC(F)F)cn2)cc1NC(=O)c1cnc(-c2ccc3c(c2)CC(=O)N3)o1 [Example 359] | 100 to 1000 nM | 100 to 1000 nM
37 | Cc1ccc(-c2ncc(OC(F)(F)F)cn2)cc1NC(=O)c1cnc(-c2ccc3c(c2)CC(=O)N3)o1 [Example 360] | 100 to 1000 nM | 100 to 1000 nM
38 | Cc1ncc(-c2ncc(C3CC3)cn2)cc1NC(=O)c1cnc(-c2ccc3c(c2)CC(=O)N3)o1 [Example 361] | 100 to 1000 nM | 100 to 1000 nM
39 | Cc1ncc(-c2ncc(OC(F)F)cn2)cc1NC(=O)c1cnc(-c2ccc3c(c2)CC(=O)N3)o1 [Example 362] | 100 to 1000 nM | 100 to 1000 nM
40 | Cc1ccc(-c2ncc(C3CC3)cn2)cc1NC(=O)c1cnc(-c2ccc3c(c2)CC(=O)N3)o1 [Example 363] | < 100 nM | < 100 nM
41 | Cc1ccc(-c2ncc(C3CC3)cn2)cc1NC(=O)c1cnn2ccc(-c3c(C)nc(N)nc3C)cc12 [Example 365] | < 100 nM | 100 to 1000 nM
42 | Cc1ccc(-c2ncc(OC(F)F)cn2)cc1NC(=O)c1cnn2ccc(-c3c(C)nc(N)nc3C)cc12 [Example 366] | 100 to 1000 nM | > 1000 nM
43 | Cc1ccc(-c2ncc(OC(F)(F)F)cn2)cc1NC(=O)c1cnn2ccc(-c3c(C)nc(N)nc3C)cc12 [Example 367] | 100 to 1000 nM | 100 to 1000 nM
44 | Cc1ncc(-c2ncc(C3CC3)cn2)cc1NC(=O)c1cnn2ccc(-c3c(C)nc(N)nc3C)cc12 [Example 371-1] | 100 to 1000 nM | > 1000 nM
45 | Cc1ccc(-c2nnc([C@H]3C[C@@H]3F)o2)cc1NC(=O)c1cnc(-c2ccc3c(c2)CC(=O)N3)o1 [Example 374] | 100 to 1000 nM | 100 to 1000 nM
46 | Cc1ncc(-c2cn(C3CC3)nn2)cc1NC(=O)c1cnn2ccc(N3CC4(C3)CC(O)(C(F)F)C4)cc12 [Example 377] | < 100 nM | 100 to 1000 nM
